Results reported in ChEMBL document CHEMBL5465560, “Selectivity Literature for EUbOPEN Chemogenomic Library” (2024).
Values belong to the molecule of their own block, whether it stands above or below them.

Key:
[1] = biological target: Calcium/calmodulin-dependent protein kinase type II subunit delta (Homo sapiens) (UniProt Q13557); assay: Selectivity interaction (ActivX KiNativ screen (kinase selectivity in THP-1 cell lysates)) EUB0000639a CAMK2D; assay type: subcellular; conditions: lysate, at 5 µM
Chain of Calcium/calmodulin-dependent protein kinase type II subunit delta (Homo sapiens) (Q13557 whole entry): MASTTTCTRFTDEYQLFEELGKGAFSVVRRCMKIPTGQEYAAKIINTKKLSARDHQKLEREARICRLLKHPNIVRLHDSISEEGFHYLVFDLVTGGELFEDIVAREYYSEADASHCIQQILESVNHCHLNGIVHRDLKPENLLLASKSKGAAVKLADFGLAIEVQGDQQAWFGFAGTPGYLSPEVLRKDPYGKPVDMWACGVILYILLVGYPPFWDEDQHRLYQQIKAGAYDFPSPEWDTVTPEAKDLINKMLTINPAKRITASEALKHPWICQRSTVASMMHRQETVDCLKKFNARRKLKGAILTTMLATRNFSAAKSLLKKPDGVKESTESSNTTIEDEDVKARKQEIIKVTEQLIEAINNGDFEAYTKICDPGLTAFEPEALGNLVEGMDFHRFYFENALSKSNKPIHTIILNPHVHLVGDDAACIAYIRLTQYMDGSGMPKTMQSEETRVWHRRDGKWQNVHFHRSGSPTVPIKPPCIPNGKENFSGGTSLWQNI

[2] = biological target: T1, Inhibitor of nuclear factor kappa-B kinase subunit beta (Homo sapiens) (UniProt O14920); assay: Selectivity interaction (ActivX KiNativ screen (kinase selectivity in THP-1 cell lysates)) EUB0000639a IKBKB; assay type: subcellular; conditions: lysate
T1 sequence (whole entry): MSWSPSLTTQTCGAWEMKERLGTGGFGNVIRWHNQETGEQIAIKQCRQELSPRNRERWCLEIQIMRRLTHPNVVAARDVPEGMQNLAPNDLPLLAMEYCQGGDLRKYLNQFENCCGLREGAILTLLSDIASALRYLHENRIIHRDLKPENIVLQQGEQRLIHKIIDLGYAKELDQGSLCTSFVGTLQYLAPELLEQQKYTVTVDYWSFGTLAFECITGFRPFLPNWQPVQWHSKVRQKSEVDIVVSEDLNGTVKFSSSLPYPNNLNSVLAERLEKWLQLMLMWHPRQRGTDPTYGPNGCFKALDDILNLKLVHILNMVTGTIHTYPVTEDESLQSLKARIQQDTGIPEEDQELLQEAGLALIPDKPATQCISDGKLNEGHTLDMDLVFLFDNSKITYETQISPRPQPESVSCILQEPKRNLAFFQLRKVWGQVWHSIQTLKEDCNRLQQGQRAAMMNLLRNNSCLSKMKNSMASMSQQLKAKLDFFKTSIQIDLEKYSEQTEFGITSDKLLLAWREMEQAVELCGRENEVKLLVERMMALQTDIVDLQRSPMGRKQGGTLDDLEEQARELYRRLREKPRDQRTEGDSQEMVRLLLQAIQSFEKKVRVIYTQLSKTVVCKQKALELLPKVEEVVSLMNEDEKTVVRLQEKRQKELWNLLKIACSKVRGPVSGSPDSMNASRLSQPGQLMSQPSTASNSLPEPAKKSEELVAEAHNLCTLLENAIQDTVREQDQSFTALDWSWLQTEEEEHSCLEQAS

[3] = biological target: Ribosomal protein S6 kinase alpha-3 (Homo sapiens, UniProt P51812); assay: Selectivity interaction (ActivX KiNativ screen (kinase selectivity in THP-1 cell lysates)) EUB0000639a RPS6KA3; assay type: subcellular; conditions: lysate, at 0.04 µM
Chain of Ribosomal protein S6 kinase alpha-3 (P51812 whole entry): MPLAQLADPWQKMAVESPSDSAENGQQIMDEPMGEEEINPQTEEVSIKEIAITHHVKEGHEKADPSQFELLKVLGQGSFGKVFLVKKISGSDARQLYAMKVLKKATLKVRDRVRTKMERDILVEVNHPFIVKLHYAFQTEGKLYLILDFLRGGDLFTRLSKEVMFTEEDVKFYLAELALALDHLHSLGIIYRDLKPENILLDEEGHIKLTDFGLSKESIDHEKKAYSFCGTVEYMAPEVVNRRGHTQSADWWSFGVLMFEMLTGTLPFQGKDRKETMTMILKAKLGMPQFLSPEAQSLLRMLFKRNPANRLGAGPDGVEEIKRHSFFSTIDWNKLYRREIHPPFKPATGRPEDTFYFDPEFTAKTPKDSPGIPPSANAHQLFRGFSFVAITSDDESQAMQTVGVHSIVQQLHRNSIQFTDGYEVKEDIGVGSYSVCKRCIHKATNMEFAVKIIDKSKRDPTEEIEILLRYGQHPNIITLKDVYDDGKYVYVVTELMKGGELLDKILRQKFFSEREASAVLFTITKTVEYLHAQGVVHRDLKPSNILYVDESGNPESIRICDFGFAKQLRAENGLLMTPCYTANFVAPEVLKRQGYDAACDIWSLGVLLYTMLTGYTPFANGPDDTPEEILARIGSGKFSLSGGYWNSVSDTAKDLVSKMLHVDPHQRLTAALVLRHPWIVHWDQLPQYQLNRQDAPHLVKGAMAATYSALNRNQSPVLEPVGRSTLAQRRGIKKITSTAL

[4] = biological target: T2, Testis-specific serine/threonine-protein kinase 1 (Homo sapiens) (UniProt Q9BXA7); assay: Selectivity interaction (ProQinase) EUB0000171b TSSK1A
T2 sequence (whole entry): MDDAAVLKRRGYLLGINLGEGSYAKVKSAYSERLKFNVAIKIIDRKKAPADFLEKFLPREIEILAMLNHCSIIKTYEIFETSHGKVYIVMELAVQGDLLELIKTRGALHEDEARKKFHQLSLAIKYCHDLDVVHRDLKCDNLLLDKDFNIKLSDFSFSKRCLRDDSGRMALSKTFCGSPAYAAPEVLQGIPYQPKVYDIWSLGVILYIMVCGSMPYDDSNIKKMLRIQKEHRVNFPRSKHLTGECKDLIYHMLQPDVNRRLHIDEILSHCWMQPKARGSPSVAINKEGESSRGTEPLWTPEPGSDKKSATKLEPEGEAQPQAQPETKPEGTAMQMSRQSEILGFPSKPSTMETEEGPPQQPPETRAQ

[5] = biological target: Macrophage colony-stimulating factor 1 receptor (Homo sapiens) (UniProt P07333); assay: Selectivity interaction (KinomeScan (DiscoverX)) EUB0001049a CSF1R; conditions: at 1 µM
[6] = biological target: TRAF2 and NCK-interacting protein kinase (Homo sapiens) (UniProt Q9UKE5); assay: Selectivity interaction (KinomeScan (DiscoverX)) EUB0000655a TNIK; conditions: at 10 µM
Chain of TRAF2 and NCK-interacting protein kinase (Homo sapiens) (Q9UKE5 whole entry, looked up): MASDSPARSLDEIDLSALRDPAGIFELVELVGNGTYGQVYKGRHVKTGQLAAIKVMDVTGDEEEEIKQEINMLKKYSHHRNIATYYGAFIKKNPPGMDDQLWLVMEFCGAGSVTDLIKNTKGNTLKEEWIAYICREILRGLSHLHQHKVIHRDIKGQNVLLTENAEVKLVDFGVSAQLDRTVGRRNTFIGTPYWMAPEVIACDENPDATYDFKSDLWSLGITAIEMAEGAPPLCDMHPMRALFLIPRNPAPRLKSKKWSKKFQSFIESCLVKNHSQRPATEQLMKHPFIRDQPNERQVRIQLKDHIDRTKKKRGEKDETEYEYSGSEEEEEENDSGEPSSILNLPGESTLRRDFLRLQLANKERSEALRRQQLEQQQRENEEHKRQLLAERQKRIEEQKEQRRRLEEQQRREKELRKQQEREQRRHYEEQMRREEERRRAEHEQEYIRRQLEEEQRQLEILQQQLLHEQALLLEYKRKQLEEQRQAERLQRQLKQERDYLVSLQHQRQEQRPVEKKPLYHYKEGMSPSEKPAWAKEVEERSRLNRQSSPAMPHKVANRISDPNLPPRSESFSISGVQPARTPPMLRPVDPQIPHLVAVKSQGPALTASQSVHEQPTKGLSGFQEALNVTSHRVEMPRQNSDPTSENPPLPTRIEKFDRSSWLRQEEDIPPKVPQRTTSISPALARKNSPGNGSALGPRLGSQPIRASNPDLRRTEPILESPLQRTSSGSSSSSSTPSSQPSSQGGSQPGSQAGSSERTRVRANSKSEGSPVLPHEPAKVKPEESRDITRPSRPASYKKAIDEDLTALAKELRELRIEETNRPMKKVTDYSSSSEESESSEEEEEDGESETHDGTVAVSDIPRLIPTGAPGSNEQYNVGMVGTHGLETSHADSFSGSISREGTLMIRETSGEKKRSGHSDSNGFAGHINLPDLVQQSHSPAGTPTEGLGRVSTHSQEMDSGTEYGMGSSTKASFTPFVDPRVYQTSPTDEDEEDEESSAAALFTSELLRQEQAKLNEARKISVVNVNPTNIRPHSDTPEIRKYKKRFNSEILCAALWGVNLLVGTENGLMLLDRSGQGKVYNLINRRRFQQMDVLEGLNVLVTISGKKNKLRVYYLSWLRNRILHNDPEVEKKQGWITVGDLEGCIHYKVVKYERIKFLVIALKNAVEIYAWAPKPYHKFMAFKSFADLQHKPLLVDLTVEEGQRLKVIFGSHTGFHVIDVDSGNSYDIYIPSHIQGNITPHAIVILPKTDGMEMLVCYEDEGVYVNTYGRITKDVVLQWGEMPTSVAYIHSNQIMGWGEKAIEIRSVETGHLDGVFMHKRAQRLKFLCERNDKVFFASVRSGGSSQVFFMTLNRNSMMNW

[7] = biological target: Serine/threonine-protein kinase pim-2 (Homo sapiens, UniProt Q9P1W9)
Chain of Serine/threonine-protein kinase pim-2 (Q9P1W9 whole entry): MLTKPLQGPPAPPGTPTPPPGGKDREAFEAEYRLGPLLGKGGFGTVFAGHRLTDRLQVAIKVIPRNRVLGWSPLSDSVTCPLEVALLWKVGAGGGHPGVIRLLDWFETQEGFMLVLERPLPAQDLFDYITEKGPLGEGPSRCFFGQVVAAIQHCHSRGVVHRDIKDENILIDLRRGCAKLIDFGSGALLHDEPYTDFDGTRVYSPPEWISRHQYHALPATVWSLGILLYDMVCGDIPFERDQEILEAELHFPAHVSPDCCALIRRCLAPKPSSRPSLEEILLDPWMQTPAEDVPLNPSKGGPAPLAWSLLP

[8] = biological target: Ribosomal protein S6 kinase alpha-1 (Homo sapiens, UniProt Q15418); assay: Selectivity interaction (Kinase panel (KiNativ target engagement assay in Jurkat cells)) EUB0001635a RPS6KA1; assay type: cell-based; conditions: Selectivity number of off-targets 0.0, Selectivity number of targets 233.0, Source Knowledge https://www.sciencedirect.com/science/article/pii/S2451945619300674?via%3Dihub, at 1 µM
[9] = test system: T3, Receptor-type tyrosine-protein kinase FLT3 (Homo sapiens), P36888 [D835H]; conditions: at 10 µM
T3 sequence (whole entry): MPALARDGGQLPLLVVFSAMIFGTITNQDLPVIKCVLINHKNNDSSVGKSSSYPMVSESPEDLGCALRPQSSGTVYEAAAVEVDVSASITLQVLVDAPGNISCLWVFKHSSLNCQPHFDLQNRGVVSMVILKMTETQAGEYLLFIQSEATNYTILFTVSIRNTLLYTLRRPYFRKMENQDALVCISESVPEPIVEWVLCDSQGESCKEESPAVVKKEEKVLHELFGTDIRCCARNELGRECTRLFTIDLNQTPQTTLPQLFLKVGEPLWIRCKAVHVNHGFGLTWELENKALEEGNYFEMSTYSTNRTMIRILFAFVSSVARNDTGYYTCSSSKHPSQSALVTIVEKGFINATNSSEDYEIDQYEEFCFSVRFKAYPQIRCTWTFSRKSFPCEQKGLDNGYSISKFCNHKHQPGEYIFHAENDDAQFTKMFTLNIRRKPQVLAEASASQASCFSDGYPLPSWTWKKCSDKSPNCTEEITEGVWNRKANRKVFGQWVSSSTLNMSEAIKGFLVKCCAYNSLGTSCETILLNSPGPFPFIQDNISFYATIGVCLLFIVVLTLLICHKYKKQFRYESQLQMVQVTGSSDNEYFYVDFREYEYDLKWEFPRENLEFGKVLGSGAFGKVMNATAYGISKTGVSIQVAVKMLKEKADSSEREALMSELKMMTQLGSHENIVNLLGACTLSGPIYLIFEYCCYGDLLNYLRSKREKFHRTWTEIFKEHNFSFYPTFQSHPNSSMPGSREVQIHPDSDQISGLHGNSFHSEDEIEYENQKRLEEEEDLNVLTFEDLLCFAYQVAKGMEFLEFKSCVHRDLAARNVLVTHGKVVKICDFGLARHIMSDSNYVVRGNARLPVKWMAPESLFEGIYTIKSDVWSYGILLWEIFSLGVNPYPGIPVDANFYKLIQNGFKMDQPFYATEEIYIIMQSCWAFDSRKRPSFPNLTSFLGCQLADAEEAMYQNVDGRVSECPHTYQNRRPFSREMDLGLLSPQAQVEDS

[10] = biological target: ALK tyrosine kinase receptor (Homo sapiens, UniProt Q9UM73); conditions: at 10 µM
Chain of ALK tyrosine kinase receptor (Q9UM73 19-1620 limits assumed): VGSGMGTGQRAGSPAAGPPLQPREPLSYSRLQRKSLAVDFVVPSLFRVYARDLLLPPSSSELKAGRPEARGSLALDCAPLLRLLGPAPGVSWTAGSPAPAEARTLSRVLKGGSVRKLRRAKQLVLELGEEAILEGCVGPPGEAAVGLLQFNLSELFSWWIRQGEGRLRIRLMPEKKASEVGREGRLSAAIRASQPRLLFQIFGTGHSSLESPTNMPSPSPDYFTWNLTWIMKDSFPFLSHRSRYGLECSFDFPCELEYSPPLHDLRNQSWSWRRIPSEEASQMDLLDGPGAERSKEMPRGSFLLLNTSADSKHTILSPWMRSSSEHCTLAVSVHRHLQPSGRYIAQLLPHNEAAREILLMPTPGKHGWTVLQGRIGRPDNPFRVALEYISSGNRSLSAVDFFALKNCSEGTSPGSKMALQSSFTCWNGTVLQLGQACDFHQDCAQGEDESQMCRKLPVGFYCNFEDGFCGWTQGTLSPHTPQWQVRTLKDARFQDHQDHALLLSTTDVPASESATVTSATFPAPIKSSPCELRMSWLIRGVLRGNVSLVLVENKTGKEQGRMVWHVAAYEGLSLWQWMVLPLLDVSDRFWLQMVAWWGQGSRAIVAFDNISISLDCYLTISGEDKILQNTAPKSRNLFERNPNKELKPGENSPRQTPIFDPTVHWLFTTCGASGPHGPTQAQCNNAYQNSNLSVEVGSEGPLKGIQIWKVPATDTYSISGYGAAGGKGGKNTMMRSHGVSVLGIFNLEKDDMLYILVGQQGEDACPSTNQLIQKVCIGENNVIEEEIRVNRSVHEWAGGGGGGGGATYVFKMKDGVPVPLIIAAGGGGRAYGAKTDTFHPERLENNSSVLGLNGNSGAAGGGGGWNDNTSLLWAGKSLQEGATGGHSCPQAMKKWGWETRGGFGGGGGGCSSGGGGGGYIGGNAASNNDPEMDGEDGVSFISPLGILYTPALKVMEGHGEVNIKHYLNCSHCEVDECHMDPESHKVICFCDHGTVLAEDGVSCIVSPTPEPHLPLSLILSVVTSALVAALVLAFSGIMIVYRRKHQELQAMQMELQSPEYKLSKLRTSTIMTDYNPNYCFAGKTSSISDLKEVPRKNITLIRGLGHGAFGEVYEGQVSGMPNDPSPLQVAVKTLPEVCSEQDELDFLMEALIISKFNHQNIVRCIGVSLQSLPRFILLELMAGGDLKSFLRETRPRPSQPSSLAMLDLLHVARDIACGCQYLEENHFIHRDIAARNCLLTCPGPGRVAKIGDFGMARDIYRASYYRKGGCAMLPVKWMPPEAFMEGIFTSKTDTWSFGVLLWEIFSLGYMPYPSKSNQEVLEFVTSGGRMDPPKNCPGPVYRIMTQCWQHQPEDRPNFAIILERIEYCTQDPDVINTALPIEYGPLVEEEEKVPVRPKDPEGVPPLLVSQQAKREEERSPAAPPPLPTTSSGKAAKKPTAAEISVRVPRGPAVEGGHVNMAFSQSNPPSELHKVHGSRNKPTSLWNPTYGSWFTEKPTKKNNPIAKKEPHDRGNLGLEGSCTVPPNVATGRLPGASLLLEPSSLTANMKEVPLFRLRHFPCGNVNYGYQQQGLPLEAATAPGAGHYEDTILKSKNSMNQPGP

[11] = biological target: Serine/threonine-protein kinase PAK 4 (Homo sapiens, UniProt O96013); assay: Selectivity interaction (KinomeScan (DiscoverX)) EUB0000618a PAK4; conditions: at 10 µM
Chain of Serine/threonine-protein kinase PAK 4 (O96013 whole entry, looked up): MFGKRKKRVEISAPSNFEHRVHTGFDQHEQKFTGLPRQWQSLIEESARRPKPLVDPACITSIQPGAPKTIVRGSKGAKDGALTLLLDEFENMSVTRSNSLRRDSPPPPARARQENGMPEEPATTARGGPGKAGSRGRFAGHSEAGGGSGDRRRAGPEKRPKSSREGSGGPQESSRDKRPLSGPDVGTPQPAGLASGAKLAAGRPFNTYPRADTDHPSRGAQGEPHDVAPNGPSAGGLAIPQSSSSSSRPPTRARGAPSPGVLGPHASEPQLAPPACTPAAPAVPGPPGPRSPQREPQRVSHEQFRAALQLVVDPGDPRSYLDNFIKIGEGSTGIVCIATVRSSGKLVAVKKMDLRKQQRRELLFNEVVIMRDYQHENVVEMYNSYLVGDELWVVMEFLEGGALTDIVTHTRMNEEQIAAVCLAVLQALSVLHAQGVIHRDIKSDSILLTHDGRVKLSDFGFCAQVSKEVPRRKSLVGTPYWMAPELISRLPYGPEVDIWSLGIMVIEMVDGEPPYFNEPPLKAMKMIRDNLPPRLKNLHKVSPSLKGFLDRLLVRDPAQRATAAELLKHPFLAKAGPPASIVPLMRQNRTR

% of inhibition [1]: 56.2%
% of inhibition ([2]; at 0.01 µM): -9.1%
% of inhibition ([2]; at 0.04 µM): 4.5%
% of inhibition ([2]; at 0.2 µM): -13.8%
% of inhibition ([2]; at 1 µM): 4.1%
% of inhibition ([2]; at 5 µM): -6.8%
% of inhibition [3]: -18.2%
SMILES: CC[C@@H]1[C@H](F)C(=O)N[C@@H]1COc1nccc2cc(C(N)=O)c(OC)cc12 [ZIMLOVISERTIB]

% of control ([4]; at 1 µM): 76%
% of control ([4]; at 5 µM): 72%
SMILES: C=CC(=O)Nc1cccc(C(=O)Nc2ccc(Nc3cc(-c4[nH]c(SC)nc4C)ccn3)cc2)c1

SMILES: COc1cc(Nc2nc(C)cc(-c3cnn4nc(OC)ccc34)n2)cc(C(F)(F)F)c1
% of control [5]: 100%

SMILES: CN(C)CCOc1ccc(-c2nc(-c3ccncc3)c(-c3ccc4c(c3)CC/C4=N\O)[nH]2)cc1
% of control [6]: 12%

IC50 [7]: > 10 µM
SMILES: CCc1cccc(CC)c1NC(=O)c1nn(C)c2c1CCc1cnc(Nc3ccc(C(=O)NC4CCN(C)CC4)cc3OC(F)(F)F)nc1-2

SMILES: C=CC(=O)Nc1ccc(C(=O)Nc2[nH]nc3c2CN(C(=O)N[C@H](CN(C)C)c2ccccc2)C3(C)C)cc1
% of engagement [8]: 1.2%

SMILES: Cc1cc([C@@H](C)Nc2ccccc2C(=O)O)c2nc(N3CCOCC3)cc(=O)n2c1 [AZD-6482]
% of control [9]: 27%
% of control [10]: 100%

SMILES: O[C@H]1CC[C@H](Nc2ncc3nc(Nc4c(F)cc(F)cc4F)n([C@H]4CCOC4)c3n2)CC1
% of control [11]: 100%
